We go through 27 compounds from US20110124626A1, “BENZAZEPINE DERIVATIVES AND THEIR USE AS HISTAMINE H3 ANTAGONISTS” (TAKEDA PHARMACEUTICAL COMPANY LIMITED, priority 2008, published 2011).

The target of assay [1] is T1, human H3 receptor (Homo sapiens, UniProt Q9Y5N1).
T1 construct: expressed in transfected cells
As to the kind of experiment: In vitro H3 binding assay (3H-N-α-methyl-histamine competition binding). The settings on record: membranes of CHO-K1 cells expressing human H3 receptor; 2 nM 3H-NαMH; read-out: hH3 binding IC50. An outline of the steps: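 Membranes from CHO-K1 cells stably expressing human H3 (5 μg/well) incubated 1 h at room temperature with compound and 2 nM ³H-NαMH in 50 mM Tris-HCl pH 7.4, 5 mM MgCl2; non-specific binding defined with 1 μM RαMH. Bound radioactivity measured by filtration and scintillation; IC50 from seven-point curves by variable-slope sigmoidal regression.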

In assay [2] the target is T1, human H3 receptor. As to the kind of experiment: In vitro H3 functional assay (cAMP response element driven luciferase reporter). The settings on record: CHO(dhfr+)-cre-luc cells expressing human H3 receptor; RαMH 10 nM, forskolin 1 μM; read-out: hH3 functional IC50. Format: cell-based. The method, then: The functional activity of compounds at the H3 receptor was determined by measuring changes in the level of intracellular cAMP using a cAMP response element driven luciferase reporter assay. The changes in luciferase expression were monitored by a luminescence plate reader, Analyst HT (MDS Analytical). Increases in intracellular cAMP were readily detected upon activation of protein kinase A by forskolin (Sigma) and suppression of this response observed with the application of the H3 receptor agonist RαMH (Sigma).
CHO(dhfr^+)-cre-luc cells stably expressing human H3 receptor were routinely grown as monolayers in Minimal Essential Medium α (MEMα) (Invitrogen) supplemented with 10% dialysed FBS (Hyclone), in 5% CO2 at 37° C. 48 hours prior to assay, cells were seeded in clear-base white walled 384-well plates (Corning) at a density of 5000 cells/well. On the day of assay, growth media was removed and replaced with […] of assay buffer (MEMα, 5 mg/ml fatty acid free BSA (Sigma)) per well. Cells were then incubated for 30 minutes at 37° C., 5% CO2. Compound was serially diluted in DMSO before being diluted 1:10 with assay buffer. 2.5 of compound diluted in assay buffer was added and cells incubated for 5 minutes at 37° C., 5% CO2. 2.5 μl of each reagent was then added in the following order: RαMH (10 nM), isobutylmethylxanthine (1-methyl-3-(2-methylpropyl)-7H-purine-2,6-dione; IBMX) (500 μM) (Sigma) and forskolin (1 μM). Cells were then incubated for 90 minutes at 37° C., 5% CO2, followed by 30 minutes at room temperature. At the end of incubation 25 μl of Steadylite reagent (Perkin Elmer) was added, plates were sealed and placed on a shaker for 5 minutes. The level of light output to determine the level of luciferase expression was then measured.
IC50 values for compounds were determined from ten point half log scale dose-response studies and represent the concentration of compound required to […] 50% inhibition of forskolin stimulated cells in the presence of RαMH alone. Curves were generated using the average of duplicate wells for each data point and analyzed using nonlinear regression of four parameter dose response.
A general note: Reporter assays use an easily measured gene product as a stand-in for the process of interest.

SMILES strings stand for the structures.

Usually IC50 stands for the midpoint of a concentration-inhibition curve.

T1 sequence (Q9Y5N1 whole entry): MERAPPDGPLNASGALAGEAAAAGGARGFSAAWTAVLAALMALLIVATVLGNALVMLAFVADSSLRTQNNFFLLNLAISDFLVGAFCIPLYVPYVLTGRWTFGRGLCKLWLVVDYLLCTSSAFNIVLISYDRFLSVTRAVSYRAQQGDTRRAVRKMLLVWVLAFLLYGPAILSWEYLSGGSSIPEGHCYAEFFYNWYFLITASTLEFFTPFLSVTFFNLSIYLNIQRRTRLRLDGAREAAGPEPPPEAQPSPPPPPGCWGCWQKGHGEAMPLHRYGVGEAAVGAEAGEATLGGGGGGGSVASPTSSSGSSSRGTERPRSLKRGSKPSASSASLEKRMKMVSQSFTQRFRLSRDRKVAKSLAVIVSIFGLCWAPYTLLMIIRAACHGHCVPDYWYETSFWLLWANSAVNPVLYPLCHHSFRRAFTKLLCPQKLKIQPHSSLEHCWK

For the compound `O=C(NCC1CCOCC1)c1ccc2c(c1)CCN(C1CCC1)CC2` [Example 35, 3-Cyclobutyl-N-((tetrahydro-2H-pyran-4-yl)methyl)-2,3,4,5-tetrahydro-1H-benzo[d]azepine-7-carboxamide], the figures for the half-inhibitory concentration (IC50) at human H3 receptor [1] and on human H3 receptor [2] were 11 nM and 1 nM, respectively.

Take `CNC(=O)c1ccc2c(c1)CCN(C1CCC1)CC2` [Example 24, 3-Cyclobutyl-N-methyl-2,3,4,5-tetrahydro-1H-benzo[d]azepine-7-carboxamide]: the IC50 is 44 nM at human H3 receptor [1] and 16 nM on human H3 receptor [2].

For the compound `Cn1nccc1NC(=O)Cc1ccc2c(c1)CCN(C1CCC1)CC2` [Example 221, 2-(3-cyclobutyl-2,3,4,5-tetrahydro-1H-benzo[d]azepin-7-yl)-N-(1-methyl-1H-pyrazol-5-yl)acetamide], the IC50 was 11 nM on human H3 receptor [1] and 3 nM on human H3 receptor [2].

Consider `O=C1CCCN1Cc1ccc2c(c1)CCN(C1CCC1)CC2` [Example 304, 1-((3-cyclobutyl-2,3,4,5-tetrahydro-1H-benzo[d]azepin-7-yl)methyl)pyrrolidin-2-one], for which the figures for the IC50 on human H3 receptor [1] and at human H3 receptor [2] were 61 nM and 34 nM, respectively.

Take `O=C(NCc1cccc(-c2nccs2)c1)c1ccc2c(c1)CCN(C1CCC1)CC2` [Example 69, 3-Cyclobutyl-N-(3-(thiazol-2-yl)benzyl)-2,3,4,5-tetrahydro-1H-benzo[d]azepine-7-carboxamide]: the results for the concentration for half-maximal inhibition (IC50) at human H3 receptor [1] and at human H3 receptor [2] were 2 nM and 0.5 nM, respectively.

In the case of `CCNC(=O)C1CCC(O)(Cc2ccc3c(c2)CCN(C2CCC2)CC3)CC1` (stereo not drawn) [Example 231, 4-((3-cyclobutyl-2,3,4,5-tetrahydro-1H-benzo[d]azepin-7-yl)methyl)-N-ethyl-4-hydroxycyclohexanecarboxamide], the 50% inhibitory concentration (IC50) on human H3 receptor [1] amounted to 23 nM; on human H3 receptor [2], 15 nM.

With `Cn1ccc2c(CNC(=O)c3ccc4c(c3)CCN(C3CCC3)CC4)cccc21` [Example 77, 3-Cyclobutyl-N-((1-methyl-1H-indol-4-yl)methyl)-2,3,4,5-tetrahydro-1H-benzo[d]azepine-7-carboxamide], the results for the 50% inhibitory concentration (IC50) on human H3 receptor [1] and at human H3 receptor [2] were 3 nM and 1 nM, respectively.

Consider `CCCOc1ccc(C(=O)NCc2ccc3c(c2)CCN(C2CCC2)CC3)cn1` [Example 306, N-((3-cyclobutyl-2,3,4,5-tetrahydro-1H-benzo[d]azepin-7-yl)methyl)-6-propoxynicotinamide], for which the figures for the 50% inhibitory concentration (IC50) on human H3 receptor [1] and at human H3 receptor [2] were 18 nM and 2 nM, respectively.

Take `Cn1nccc1CNC(=O)c1ccc2c(c1)CCN(C1CCC1)CC2` [Example 1, 3-cyclobutyl-N-((1-methyl-1H-pyrazol-5-yl)methyl)-2,3,4,5-tetrahydro-1H-benzo[d]azepine-7-carboxamide]: the IC50 at human H3 receptor [1] came to 1 nM; at human H3 receptor [2], 0.7 nM.

Regarding `CC(=O)N1CCCC(CNC(=O)c2ccc3c(c2)CCN(C2CCC2)CC3)C1` (stereo not drawn) [Example 164, N-((1-acetylpiperidin-3-yl)methyl)-3-cyclobutyl-2,3,4,5-tetrahydro-1H-benzo[d]azepine-7-carboxamide], the IC50 on human H3 receptor [1] amounted to 10 nM; at human H3 receptor [2], 5 nM.

With `Cn1ccc(CCC(=O)c2ccc3c(c2)CCN(C2CCC2)CC3)n1` [Example 134, 1-(3-cyclobutyl-2,3,4,5-tetrahydro-1H-benzo[d]azepin-7-yl)-3-(1-methyl-1H-pyrazol-3-yl)propan-1-one], the IC50 came to 13 nM at human H3 receptor [1] and 1 nM at human H3 receptor [2].

On to `O=C(Cc1ccc2c(c1)CCN(C1CCC1)CC2)Nc1cccnc1` [Example 224, 2-(3-cyclobutyl-2,3,4,5-tetrahydro-1H-benzo[d]azepin-7-yl)-N-(pyridin-3-yl)acetamide], for which the values for the half-maximal inhibitory concentration (IC50) on human H3 receptor [1] and at human H3 receptor [2] were 2 nM and 4 nM, respectively.

Consider `Cc1ncc(C(=O)NCc2ccc3c(c2)CCN(C2CCC2)CC3)cn1` [Example 211, N-((3-cyclobutyl-2,3,4,5-tetrahydro-1H-benzo[d]azepin-7-yl)methyl)-2-methylpyrimidine-5-carboxamide], for which the IC50 came out at 6 nM on human H3 receptor [1] and 9 nM at human H3 receptor [2].

As to `O=C(NCc1cccc(-n2cncn2)c1)c1ccc2c(c1)CCN(C1CCC1)CC2` [Example 68, N-(3-(1H-1,2,4-Triazol-1-yl)benzyl)-3-cyclobutyl-2,3,4,5-tetrahydro-1H-benzo[d]azepine-7-carboxamide], the IC50 at human H3 receptor [1] was found to be 1 nM; at human H3 receptor [2], 3 nM.

In the case of `OC(Cc1ccc2c(c1)CCN(C1CCC1)CC2)c1ccccn1` (stereo not drawn) [Example 143, 2-(3-cyclobutyl-2,3,4,5-tetrahydro-1H-benzo[d]azepin-7-yl)-1-(pyridin-2-yl)ethanol], the IC50 was 24 nM on human H3 receptor [1] and 7 nM at human H3 receptor [2].

On to `O=C(NCc1ccc2c(c1)CCN(C1CCC1)CC2)c1ccc(NC2CCC2)nc1` [Example 253, N-((3-cyclobutyl-2,3,4,5-tetrahydro-1H-benzo[d]azepin-7-yl)methyl)-6-(cyclobutylamino)nicotinamide], for which the half-inhibitory concentration (IC50) at human H3 receptor [1] was found to be 1 nM; on human H3 receptor [2], 4 nM.

For `COc1ccc(CC(=O)Cc2ccc3c(c2)CCN(C2CCC2)CC3)cn1` [Example 244, 1-(3-cyclobutyl-2,3,4,5-tetrahydro-1H-benzo[d]azepin-7-yl)-3-(6-methoxypyridin-3-yl)propan-2-one], the figures for the IC50 on human H3 receptor [1] and at human H3 receptor [2] were 10 nM and 6 nM, respectively.

`CCC(=O)N1CCC(CC(O)Cc2ccc3c(c2)CCN(C2CCC2)CC3)CC1` (single isomer, unassigned) [Example 233, 1-(4-(3-(3-cyclobutyl-2,3,4,5-tetrahydro-1H-benzo[d]azepin-7-yl)-2-hydroxypropyl)piperidin-1-yl)propan-1-one]: the values for the IC50 at human H3 receptor [1] and at human H3 receptor [2] were 2 nM and 16 nM, respectively.

For `COc1ccc(C(=O)NCc2ccc3c(c2)CCN(C2CC(O)C2)CC3)cn1` (stereo not drawn) [Example 262, N-((3-(3-hydroxycyclobutyl)-2,3,4,5-tetrahydro-1H-benzo[d]azepin-7-yl)methyl)-6-methoxynicotinamide], the IC50 at human H3 receptor [1] worked out at 25 nM; at human H3 receptor [2], 10 nM.

Take `O=C(NCc1ccncc1)c1ccc2c(c1)CCN(C1CCC1)CC2` [Example 40, 3-Cyclobutyl-N-(pyridin-4-ylmethyl)-2,3,4,5-tetrahydro-1H-benzo[d]azepine-7-carboxamide]: the values for the IC50 at human H3 receptor [1] and at human H3 receptor [2] were 3 nM and 2 nM, respectively.

For the compound `O=C(NCc1c[nH]c2ccccc12)c1ccc2c(c1)CCN(C1CCC1)CC2` [Example 72, N-((1H-Indol-3-yl)methyl)-3-cyclobutyl-2,3,4,5-tetrahydro-1H-benzo[d]azepine-7-carboxamide], the IC50 at human H3 receptor [1] turned out to be 1 nM; on human H3 receptor [2], 2 nM.

Turning to `O=C(NCc1nccs1)c1ccc2c(c1)CCN(C1CCC1)CC2` [Example 86, 3-Cyclobutyl-N-(thiazol-2-ylmethyl)-2,3,4,5-tetrahydro-1H-benzo[d]azepine-7-carboxamide], the IC50 on human H3 receptor [1] is 3 nM; on human H3 receptor [2], 1 nM.

As for `Cn1nc(CNC(=O)c2ccc3c(c2)CCN(C2CCC2)CC3)c2ccccc21` [Example 73, 3-Cyclobutyl-N-((1-methyl-1H-indazol-3-yl)methyl)-2,3,4,5-tetrahydro-1H-benzo[d]azepine-7-carboxamide], the results for the IC50 at human H3 receptor [1] and on human H3 receptor [2] were 12 nM and 1 nM, respectively.

Take `Cc1c(CNC(=O)c2ccc3c(c2)CCN(C2CCC2)CC3)cnn1C` [Example 97, 3-Cyclobutyl-N-((1,5-dimethyl-1H-pyrazol-4-yl)methyl)-2,3,4,5-tetrahydro-1H-benzo[d]azepine-7-carboxamide]: the IC50 on human H3 receptor [1] is 9 nM; on human H3 receptor [2], 2 nM.

As to `O=C(NCc1ccc2c(c1)CCN(C1CCC1)CC2)c1cncc(F)c1` [Example 191, N-((3-cyclobutyl-2,3,4,5-tetrahydro-1H-benzo[d]azepin-7-yl)methyl)-5-fluoronicotinamide], the IC50 was 13 nM at human H3 receptor [1] and 2 nM on human H3 receptor [2].

As for `O=C(NCC1CCNCC1)c1ccc2c(c1)CCN(C1CCC1)CC2` [Example 5, 3-Cyclobutyl-N-(piperidin-4-ylmethyl)-2,3,4,5-tetrahydro-1H-benzo[d]azepine-7-carboxamide], the results for the IC50 on human H3 receptor [1] and at human H3 receptor [2] were 22 nM and 31 nM, respectively.

Consider `Cn1ccc(CNC(=O)c2ccc3c(c2)CCN(C2CCC2)CC3)n1` [Example 103, 3-Cyclobutyl-N-((1-methyl-1H-pyrazol-3-yl)methyl)-2,3,4,5-tetrahydro-1H-benzo[d]azepine-7-carboxamide], for which the concentration for half-maximal inhibition (IC50) at human H3 receptor [1] was 11 nM; at human H3 receptor [2], 1 nM.
